# Laboratory results published in patent US20240287076A1, “COMPOUNDS FOR TARGETING DEGRADATION OF BRUTON'S TYROSINE KINASE” (BIOGEN MA INC., priority 2021, published 2024).
# Target: T1, BTK (Homo sapiens, UniProt Q06187)
# T1 construct: The GM01501.3 cell line endogenously expresses BTK with a HiBiT fusion tag via CRISPR knock-in at its C-terminal region; endogenous in cells; host or cells: GM01501.3 (GM01501 cells engineered by CRISPR knock-in of HiBiT at the BTK locus)
# Experiment: BTK degradation assay using the HiBiT Method (Nano-Glo HiBiT Lytic Assay, GM01501.3 cells)
# Type: cell-based
# Conditions: HiBiT Degradation on GM01501.3 BTK @ 6 hours
# Procedure, shortened: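 CRISPR knock-in GM01501.3 cells expressing endogenous BTK with C-terminal HiBiT tag, treated 6 h at 37 °C with compounds, 11-point half-log titration from 10 μM top, duplicates. Remaining BTK quantified by Nano-Glo HiBiT lytic luminescence versus DMSO controls; DC50 reported.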
# T1 sequence (Q06187 whole entry, the tested form may be a part): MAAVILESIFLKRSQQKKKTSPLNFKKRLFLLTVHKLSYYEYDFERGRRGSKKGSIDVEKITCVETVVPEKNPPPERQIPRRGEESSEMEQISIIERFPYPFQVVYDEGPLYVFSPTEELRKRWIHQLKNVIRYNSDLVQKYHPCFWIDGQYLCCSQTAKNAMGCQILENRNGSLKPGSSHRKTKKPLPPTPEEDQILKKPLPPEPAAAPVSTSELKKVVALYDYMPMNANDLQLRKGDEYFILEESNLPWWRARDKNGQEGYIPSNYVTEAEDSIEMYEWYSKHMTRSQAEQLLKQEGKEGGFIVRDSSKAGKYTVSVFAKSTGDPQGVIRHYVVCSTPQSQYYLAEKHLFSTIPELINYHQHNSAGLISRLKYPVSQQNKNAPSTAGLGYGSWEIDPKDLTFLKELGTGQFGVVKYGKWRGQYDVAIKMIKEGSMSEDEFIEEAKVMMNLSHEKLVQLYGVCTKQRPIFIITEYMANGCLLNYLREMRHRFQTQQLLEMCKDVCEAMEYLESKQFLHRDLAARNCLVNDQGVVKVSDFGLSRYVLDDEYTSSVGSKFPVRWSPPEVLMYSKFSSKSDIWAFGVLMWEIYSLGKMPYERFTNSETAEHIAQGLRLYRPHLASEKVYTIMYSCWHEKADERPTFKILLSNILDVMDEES
row,Structure (SMILES),DC50 [nM]
1,"CC(C)(C)c1nc(C(=O)NCc2ccc(-c3ncnn4cc(CCN5CCC(c6ccc(C7(C)CCC(=O)NC7=O)cc6)CC5)cc34)cc2F)no1 (stereo not shown) [Example 121, 5-tert-butyl-N-[[2-fluoro-4-[6-[2-[4-[4-(3-methyl-2,6-dioxo-3-piperidyl)phenyl]-1-piperidyl]ethyl]pyrrolo[2,1-f][1,2,4]triazin-4-yl]phenyl]methyl]-1,2,4-oxadiazole-3-carboxamide]",100 to 500
2,"CC(C)(C)c1nc(C(=O)NCc2ccc(-c3ncnn4cc(CCN5CCC(c6ccc(NC7CCC(=O)NC7=O)cn6)CC5)cc34)cc2F)no1 (stereo not shown) [Example 122, 5-tert-butyl-N-[[4-[6-[2-[4-[5-[(2,6-dioxo-3-piperidyl)amino]-2-pyridyl]-1-piperidyl]ethyl]pyrrolo[2,1-f][1,2,4]triazin-4-yl]-2-fluoro-phenyl]methyl]-1,2,4-oxadiazole-3-carboxamide]",< 100
3,"CC(C)(C)c1nc(C(=O)NCc2ccc(-c3ncnn4cc(CCN5CCC(n6ccc(NC7CCC(=O)NC7=O)n6)CC5)cc34)cc2F)no1 (stereo not shown) [Example 123, 5-tert-butyl-N-[[4-[6-[2-[4-[3-[(2,6-dioxo-3-piperidyl)amino]pyrazol-1-yl]-1-piperidyl]ethyl]pyrrolo[2,1-f][1,2,4]triazin-4-yl]-2-fluoro-phenyl]methyl]-1,2,4-oxadiazole-3-carboxamide]",100 to 500
4,Cn1nc(N2CCC(=O)NC2=O)c2ccc(C3CCN(CCc4cc5c(-c6ccc(CNC(=O)c7noc(C(C)(C)C)n7)c(F)c6)ncnn5c4)CC3)cc21 [Example 124],< 100
5,"Cc1cc(-c2ncnn3cc(CN(C)CCN4CCC(c5ccc(C6CCC(=O)NC6=O)cc5)CC4)cc23)ccc1CNC(=O)c1noc(C(C)(C)C)n1 (stereo not shown) [Example 125, 5-tert-butyl-N-[[4-[6-[[2-[4-[4-(2,6-dioxo-3-piperidyl)phenyl]-1-piperidyl]ethyl-methyl-amino]methyl]pyrrolo[2,1-f][1,2,4]triazin-4-yl]-2-methyl-phenyl]methyl]-1,2,4-oxadiazole-3-carboxamide]",< 100
6,"Cc1cc(-c2ncnn3cc(CN4CCN(CCCc5ccc(NC6CCC(=O)NC6=O)cc5)CC4)cc23)ccc1CNC(=O)c1noc(C(C)(C)C)n1 (stereo not shown) [Example 126, 5-tert-butyl-N-[[4-[6-[[4-[3-[4-[(2,6-dioxo-3-piperidyl)amino]phenyl]propyl]piperazin-1-yl]methyl]pyrrolo[2,1-f][1,2,4]triazin-4-yl]-2-methyl-phenyl]methyl]-1,2,4-oxadiazole-3-carboxamide]",100 to 500
7,"Cc1cc(-c2ncnn3cc(CCCN4CCC(c5ccc(NC6CCC(=O)NC6=O)cc5)CC4)cc23)ccc1CNC(=O)c1noc(C(C)(C)C)n1 (stereo not shown) [Example 127, 5-tert-butyl-N-[[4-[6-[3-[4-[4-[(2,6-dioxo-3-piperidyl)amino]phenyl]-1-piperidyl]propyl]pyrrolo[2,1-f][1,2,4]triazin-4-yl]-2-methyl-phenyl]methyl]-1,2,4-oxadiazole-3-carboxamide]",< 100
8,"Cc1cc(-c2ncnn3cc(CCCCN4CCC(c5ccc(C6CCC(=O)NC6=O)cc5)CC4)cc23)ccc1CNC(=O)c1noc(C(C)(C)C)n1 (stereo not shown) [Example 128, 5-tert-butyl-N-[[4-[6-[4-[4-[4-(2,6-dioxo-3-piperidyl)phenyl]-1-piperidyl]butyl]pyrrolo[2,1-f][1,2,4]triazin-4-yl]-2-methyl-phenyl]methyl]-1,2,4-oxadiazole-3-carboxamide]",< 100
9,"Cc1cc(-c2ncnn3cc(CCCCN4CCC(c5ccc(N6CCC(=O)NC6=O)cc5)CC4)cc23)ccc1CNC(=O)c1noc(C(C)(C)C)n1 [Example 129, 5-tert-butyl-N-[[4-[6-[4-[4-[4-(2,4-dioxohexahydropyrimidin-1-yl)phenyl]-1-piperidyl]butyl]pyrrolo[2,1-f][1,2,4]triazin-4-yl]-2-methyl-phenyl]methyl]-1,2,4-oxadiazole-3-carboxamide]",< 100
10,"Cc1cc(-c2ncnn3cc(CCCCN4CCC(c5ccc(NC6CCC(=O)NC6=O)cc5)CC4)cc23)ccc1CNC(=O)c1noc(C(C)(C)C)n1 (stereo not shown) [Example 130, 5-tert-butyl-N-[[4-[6-[4-[4-[4-[(2,6-dioxo-3-piperidyl)amino]phenyl]-1-piperidyl]butyl]pyrrolo[2,1-f][1,2,4]triazin-4-yl]-2-methyl-phenyl]methyl]-1,2,4-oxadiazole-3-carboxamide]",< 100
11,"Cc1cc(-c2ncnn3cc(CCCCN4CCN(c5ccc(NC6CCC(=O)NC6=O)cc5)CC4)cc23)ccc1CNC(=O)c1noc(C(C)(C)C)n1 (stereo not shown) [Example 131, 5-tert-butyl-N-[[4-[6-[4-[4-[4-[(2,6-dioxo-3-piperidyl)amino]phenyl]piperazin-1-yl]butyl]pyrrolo[2,1-f][1,2,4]triazin-4-yl]-2-methyl-phenyl]methyl]-1,2,4-oxadiazole-3-carboxamide]",< 100
12,"Cc1cc(-c2ncnn3cc(CCCCN4CCC(c5ccc(NC6CCC(=O)NC6=O)cc5)C(F)(F)C4)cc23)ccc1CNC(=O)c1noc(C(C)(C)C)n1 (stereo not shown) [Example 132, 5-tert-butyl-N-[[4-[6-[4-[4-[4-[(2,6-dioxo-3-piperidyl)amino]phenyl]-3,3-difluoro-1-piperidyl]butyl]pyrrolo[2,1-f][1,2,4]triazin-4-yl]-2-methyl-phenyl]methyl]-1,2,4-oxadiazole-3-carboxamide]",< 100
13,"Cc1cc(-c2ncnn3cc(CCCCN4CCC(c5ccc6c(N7CCC(=O)NC7=O)nn(C)c6c5)CC4)cc23)ccc1CNC(=O)c1noc(C(C)(C)C)n1 [Example 133, 5-tert-butyl-N-[[4-[6-[4-[4-[3-(2,4-dioxohexahydropyrimidin-1-yl)-1-methyl-indazol-6-yl]-1-piperidyl]butyl]pyrrolo[2,1-f][1,2,4]triazin-4-yl]-2-methyl-phenyl]methyl]-1,2,4-oxadiazole-3-carboxamide]",< 100
14,"CC(C)(C)c1nc(C(=O)NCc2ccc(-c3ncnn4cc(CCCCN5CCC(c6ccc(NC7CCC(=O)NC7=O)cn6)CC5)cc34)cc2F)no1 (stereo not shown) [Example 134, 5-tert-butyl-N-[[4-[6-[4-[4-[5-[(2,6-dioxo-3-piperidyl)amino]-2-pyridyl]-1-piperidyl]butyl]pyrrolo[2,1-f][1,2,4]triazin-4-yl]-2-fluoro-phenyl]methyl]-1,2,4-oxadiazole-3-carboxamide]",< 100
15,"CC(C)(C)OC1CN(C(=O)NCc2ccc(-c3ncnn4cc(CCCCN5CCC(c6ccc(NC7CCC(=O)NC7=O)cn6)CC5)cc34)cc2F)C1 (stereo not shown) [Example 135, 3-tert-butoxy-N-[[4-[6-[4-[4-[5-[(2,6-dioxo-3-piperidyl)amino]-2-pyridyl]-1-piperidyl]butyl]pyrrolo[2,1-f][1,2,4]triazin-4-yl]-2-fluoro-phenyl]methyl]azetidine-1-carboxamide]",< 100
16,"CC(C)(C)c1nc(C(=O)NCc2ccc(-c3ncnn4cc(CCCCN5CCC(c6c(F)cc(C7CCC(=O)NC7=O)cc6F)CC5)cc34)cc2F)no1 (stereo not shown) [Example 136, 5-tert-butyl-N-[[4-[6-[4-[4-[4-(2,6-dioxo-3-piperidyl)-2,6-difluoro-phenyl]-1-piperidyl]butyl]pyrrolo[2,1-f][1,2,4]triazin-4-yl]-2-fluoro-phenyl]methyl]-1,2,4-oxadiazole-3-carboxamide]",< 100
17,"CC(C)(C)c1nc(C(=O)NCc2ccc(-c3ncnn4cc(CCCCN5CCC(n6ccc(NC7CCC(=O)NC7=O)n6)CC5)cc34)cc2F)no1 (stereo not shown) [Example 137, 5-tert-butyl-N-[[4-[6-[4-[4-[3-[(2,6-dioxo-3-piperidyl)amino]pyrazol-1-yl]-1-piperidyl]butyl]pyrrolo[2,1-f][1,2,4]triazin-4-yl]-2-fluoro-phenyl]methyl]-1,2,4-oxadiazole-3-carboxamide]",< 100
18,"CC(C)(C)c1nc(C(=O)NCc2ccc(-c3ncnn4cc(CCCCN5CCC(c6ccc(NC7CCC(=O)NC7=O)nc6)CC5)cc34)cc2F)no1 (stereo not shown) [Example 138, 5-tert-butyl-N-[[4-[6-[4-[4-[6-[(2,6-dioxo-3-piperidyl)amino]-3-pyridyl]-1-piperidyl]butyl]pyrrolo[2,1-f][1,2,4]triazin-4-yl]-2-fluoro-phenyl]methyl]-1,2,4-oxadiazole-3-carboxamide]",< 100
19,"CC(C)(C)c1nc(C(=O)NCc2ccc(-c3ncnn4cc(CCCCN5CCN(c6ccc(NC7CCC(=O)NC7=O)cn6)CC5)cc34)cc2F)no1 (stereo not shown) [Example 139, 5-tert-butyl-N-[[4-[6-[4-[4-[5-[(2,6-dioxo-3-piperidyl)amino]-2-pyridyl]piperazin-1-yl]butyl]pyrrolo[2,1-f][1,2,4]triazin-4-yl]-2-fluoro-phenyl]methyl]-1,2,4-oxadiazole-3-carboxamide]",< 100
20,"CC(C)(C)c1nc(C(=O)NCc2ccc(-c3ncnn4cc(CCCCN5CCC(c6ccc(C7(C)CCC(=O)NC7=O)cc6)CC5)cc34)cc2F)no1 (stereo not shown) [Example 140, 5-tert-butyl-N-[[2-fluoro-4-[6-[4-[4-[4-(3-methyl-2,6-dioxo-3-piperidyl)phenyl]-1-piperidyl]butyl]pyrrolo[2,1-f][1,2,4]triazin-4-yl]phenyl]methyl]-1,2,4-oxadiazole-3-carboxamide]",< 100
21,"Cc1cc(-c2ncnn3cc(COCCN4CCC(c5ccc(NC6CCC(=O)NC6=O)cc5)CC4)cc23)ccc1CNC(=O)c1noc(C(C)(C)C)n1 (stereo not shown) [Example 143, 5-tert-butyl-N-[[4-[6-[2-[4-[4-[(2,6-dioxo-3-piperidyl)amino]phenyl]-1-piperidyl]ethoxymethyl]pyrrolo[2,1-f][1,2,4]triazin-4-yl]-2-methyl-phenyl]methyl]-1,2,4-oxadiazole-3-carboxamide]",< 100
22,"Cc1cc(-c2ncnn3cc(COCCN4CCC(c5ccc(C6CCC(=O)NC6=O)cc5)CC4)cc23)ccc1CNC(=O)c1noc(C(C)(C)C)n1 (stereo not shown) [Example 144, 5-tert-butyl-N-[[4-[6-[2-[4-[4-(2,6-dioxo-3-piperidyl)phenyl]-1-piperidyl]ethoxymethyl]pyrrolo[2,1-f][1,2,4]triazin-4-yl]-2-methyl-phenyl]methyl]-1,2,4-oxadiazole-3-carboxamide]",< 100
